In the assay the test system is HCV Huh-luc/neo-ET cells (HCV replicon). The assay is described as follows: Luciferase-based HCV replicon assay, single agents and combinations. It counts as cell-based, hepatitis C virus. The settings on record: for increase of potency in the presence of Compound 2: Compound 2 at concentrations readily achieved clinically, FIGS. 2b, 3b, Table 2. The method, then:
The cell culture component of the assay is performed essentially as described by Bartenschlager et al., Hepatology, 2002, 35, 694-703, wherein exponentially growing HCV Huh-luc/neo-ET cells are seeded at 6×10^3 cells/well in 96 well assay plate. 24 hours later the cells are treated with various concentrations of compound or combination of compounds in triplicate using both fixed ratios and checkerboard matrices of test agents and cultured for 72 hours. The luciferase activity in the wells is determined using Bright-Glo reagent (Promega, Madison, Wis.) with a luminometer (Wallac 1420 Multilabel HTS Counter Victor 2). The background control is replicon cells treated with 100 nM BILN-2061, an inhibitor of the HCV protease. % Inhibition is determined for each compound concentration or combination of compounds in relation to the negative (no compound) control to calculate the EC50. In the case of ANA773, conditioned media from human PBMCs from multiple donors is pooled after treatment with 100 μM of the active of ANA773 for 24 hours.
Compound 2 was evaluated in combination with Interferon α-2a, Telaprevir (HCV NS3/4 protease inhibitor, also known as VX-950), PSI-6130 the active agent of R7128 (HCV NS5B nucleoside inhibitor), and ANA773 (TLR7 agonist). The 50% inhibitory concentration (EC50) of each compound or combination of compounds is determined independently to determine the range of concentrations used to characterize the interaction of two agents in inhibiting the HCV replicon. […] The ratio of the two compounds tested either remained fixed or is varied across the dosing range to explore the greatest combination surface.
The combination data is analyzed using CalcuSyn (Biosoft, Ferguson, Mo.), a computer program based on the method of Chou and Talalay, J. Biol. Chem., 1977, 252, 6438-6442. Combination index (CI) values for each experimental combination are calculated at the EC50, EC75 and EC90 levels. CI values of <1, 1, and >1 indicate synergy, an additive effect, and antagonism, respectively.
(In general: Replicon systems follow genome replication, usually without infectious particles.)

SMILES strings stand for the structures. Read-outs that look alike come from different tables or passages of the source.

From patent US20110229438A1, “METHOD OF INHIBITING HEPATITUS C VIRUS BY COMBINATION OF A 5,6-DIHYDRO-1H-PYRIDIN-2-ONE AND ONE OR MORE ADDITIONAL ANTIVIRAL COMPOUNDS” (priority 2008, published 2011) come the findings set out here.

What is called EC90 is the concentration at which the effect reaches the 90% level. Take `CCC[C@H](NC(=O)[C@@H]1[C@H]2CCC[C@H]2CN1C(=O)[C@@H](NC(=O)[C@@H](NC(=O)c1cnccn1)C1CCCCC1)C(C)(C)C)C(=O)C(=O)NC1CC1` [Telaprevir]: the “increase of potency in the presence of Compound 2” value is 2-3 fold. For the same molecule, the EC90 (Hepatitis C virus, Huh-luc/neo-ET, Compound 2 at 0 ng/mL (agent alone)) came to 2800 nM. The EC90 (Hepatitis C virus, Huh-luc/neo-ET, in presence of fixed Compound 2 at 6 ng/mL) is 2400 nM. Further, the EC90 (Hepatitis C virus, Huh-luc/neo-ET, in presence of fixed Compound 2 at 17 ng/mL) is 1900 nM. Moreover, for the setting “Hepatitis C virus, Huh-luc/neo-ET, in presence of fixed Compound 2 at 170 ng/mL”, the EC90 came to 1300 nM.
Turning to `C[C@@]1(F)[C@H](O)[C@@H](CO)O[C@H]1n1ccc(N)nc1=O` [PSI-6130], the “increase of potency in the presence of Compound 2” value was 4-5 fold. Further, the EC90 (Compound 2 at 0 ng/mL (agent alone), read-out: EC90) was determined as 11600 nM. The EC90 (in presence of fixed Compound 2 at 6 ng/mL, read-out: EC90) turned out to be 6000 nM. Further, the EC90 (in presence of fixed Compound 2 at 17 ng/mL, read-out: EC90) amounted to 2400 nM.
